IC50 data for 3 compounds are collected here from ChEMBL document CHEMBL4428105, “Conformational and electrostatic analysis of SN1 donor analogue glycomimetic inhibitors of ST3Gal-I mammalian sialyltransferase” (Bioorg Med Chem, 2016).

The nature of this experiment: Inhibition of rat recombinant ST3Gal-1 using CMP-Neu5Ac as substrate after 20 mins by fluorescence based reverse phase HPLC analysis.

As for `CC(=O)N[C@H]1[C@H]([C@H](O)[C@H](O)CO)O[C@](CCP(=O)(O)OC[C@H]2O[C@@H](n3ccc(N)nc3=O)[C@H](O)[C@@H]2O)(C(=O)O)C[C@@H]1O`, the IC50 (as a rule, the concentration needed to halve the response being measured) was 0.047 mM. The figure for `CC(=O)N[C@H]1[C@H]([C@H](O)[C@H](O)CO)O[C@](CCP(=O)(O)OC[C@H]2O[C@@H](n3ccc(N)nc3=O)[C@H](O)[C@@H]2O)(C(N)=O)C[C@@H]1O` is 3.3 mM; for `CC(=O)N[C@H]1[C@H]([C@H](O)[C@H](O)CO)O[C@@](CO)(CCP(=O)(O)OC[C@H]2O[C@@H](n3ccc(N)nc3=O)[C@H](O)[C@@H]2O)C[C@@H]1O` it is 4.2 mM.
